Values quoted from earlier work in patent US20130096948A1, “METHODS FOR DIAGNOSIS, PROGNOSIS AND TREATMENT” (Nodality, Inc., priority 2009, published 2013).
Read-outs that look alike come from different tables or passages of the source.

Row | SMILES | peak plasma concentration (high dose Cytarabine, 3 g/m2) [µM] | peak plasma concentration (standard dose of Cytarabine, 100 mg/m2) | peak plasma concentration (Daunorubicin at 25 mg/m2) [ng/mL] | peak plasma concentration (Daunorubicin at 50 mg/m2) [ng/mL]
1 | Nc1ccn([C@@H]2O[C@H](CO)[C@@H](O)[C@@H]2O)c(=O)n1 [Cytarabine] | 2 | approximately 40 nM |  | 
2 | COc1cccc2c1C(=O)c1c(O)c3c(c(O)c1C2=O)C[C@@](O)(C(C)=O)C[C@@H]3O[C@H]1C[C@H](N)[C@H](O)[C@H](C)O1 [Daunorubicin] |  |  | 50 | 200
